Measured values from patent US6455570B1, “Polypyrrolinone based inhibitors of matrix metalloproteases” (The Trustees of the University of Pennsylvania, priority 2000, dated 2002).

Columns and labels:
Format in all cases: biochemical
[1] = molecular target: membrane type 2 matrix metalloprotease (MMP-15) (Homo sapiens, UniProt P51511); experiment: metalloprotease activity assay by a published procedure (J. Duan, WO/0059285), membrane type 2 MMP; details: read-out: Ki, inhibitory activity against membrane type 2 matrix metalloprotease (MMP-15)
membrane type 2 matrix metalloprotease (MMP-15), sequence (P51511 132-669, species assumed): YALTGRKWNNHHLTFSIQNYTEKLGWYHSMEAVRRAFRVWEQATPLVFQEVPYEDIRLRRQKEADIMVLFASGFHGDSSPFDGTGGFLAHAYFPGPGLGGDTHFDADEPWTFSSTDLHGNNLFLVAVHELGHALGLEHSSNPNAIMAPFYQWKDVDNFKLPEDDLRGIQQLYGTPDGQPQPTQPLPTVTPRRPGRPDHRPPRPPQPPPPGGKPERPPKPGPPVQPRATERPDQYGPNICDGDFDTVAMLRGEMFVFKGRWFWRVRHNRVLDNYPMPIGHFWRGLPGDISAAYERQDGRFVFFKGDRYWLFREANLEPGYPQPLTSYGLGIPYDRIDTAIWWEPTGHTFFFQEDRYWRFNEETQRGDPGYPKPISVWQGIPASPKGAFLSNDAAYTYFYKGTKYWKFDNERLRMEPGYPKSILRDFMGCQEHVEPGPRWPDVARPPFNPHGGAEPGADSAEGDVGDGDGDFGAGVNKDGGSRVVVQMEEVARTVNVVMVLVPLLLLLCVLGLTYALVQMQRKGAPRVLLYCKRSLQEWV
Protocol: (§1) Compounds of the present invention were assayed for metalloprotease activity by a published procedure (see, for example, J. Duan, WO/0059285). […] (Whittaker, M. et al. Chem. Rev. 1999 99:2735; Borkakoti, N. et al. Struct. Biol. 1994 1:106)

gelatinase (MMP-2) = molecular target: T1, gelatinase (MMP-2) (Homo sapiens, UniProt P08253); experiment: metalloprotease activity assay by a published procedure (J. Duan, WO/0059285), gelatinase; details: read-out: Ki, inhibitory activity against gelatinase (MMP-2)
T1 sequence (P08253 110-660): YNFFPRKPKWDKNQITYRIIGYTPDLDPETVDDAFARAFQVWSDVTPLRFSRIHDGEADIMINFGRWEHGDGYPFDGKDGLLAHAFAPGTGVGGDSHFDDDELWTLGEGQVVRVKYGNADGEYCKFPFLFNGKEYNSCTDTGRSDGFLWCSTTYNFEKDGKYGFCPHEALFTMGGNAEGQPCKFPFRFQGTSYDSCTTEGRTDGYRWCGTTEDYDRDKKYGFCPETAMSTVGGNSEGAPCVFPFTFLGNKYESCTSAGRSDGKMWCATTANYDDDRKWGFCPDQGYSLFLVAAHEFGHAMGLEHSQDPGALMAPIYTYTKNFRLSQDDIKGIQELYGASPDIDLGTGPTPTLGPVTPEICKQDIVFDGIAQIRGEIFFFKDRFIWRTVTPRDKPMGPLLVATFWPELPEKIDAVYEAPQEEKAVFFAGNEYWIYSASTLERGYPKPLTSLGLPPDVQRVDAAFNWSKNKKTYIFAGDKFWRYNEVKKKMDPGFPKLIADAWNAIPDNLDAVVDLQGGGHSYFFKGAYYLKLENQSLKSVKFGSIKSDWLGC
Protocol: as §1

matrilysin (MMP-7) = molecular target: T2, matrilysin (MMP-7) (Homo sapiens, UniProt P09237); experiment: metalloprotease activity assay by a published procedure (J. Duan, WO/0059285), matrilysin; details: read-out: Ki, inhibitory activity against matrilysin (MMP-7)
T2 sequence (P09237 95-267): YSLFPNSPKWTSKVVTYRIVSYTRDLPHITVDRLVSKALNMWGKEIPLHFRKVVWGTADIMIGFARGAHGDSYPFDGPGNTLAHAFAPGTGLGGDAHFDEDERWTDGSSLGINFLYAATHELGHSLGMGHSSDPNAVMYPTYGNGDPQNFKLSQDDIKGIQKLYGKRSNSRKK
Protocol: as §1

Ki [1]: 6.8 µM | Ki (gelatinase (MMP-2)): 2.9 µM | Ki (matrilysin (MMP-7)): 6.4 µM
SMILES: CCOC(=O)C(C)C1=CNC(CC(C)C)(C2=CNC(CC(=O)NO)(CC(C)C)C2=O)C1=O (single isomer, unassigned; (-)) [(−)-1a, Bispyrrolinone Hydroxamic Acid]
